Patent US6162459A, “Acyclovir transdermal delivery system” (priority 1997, dated 2000)
“Also recorded” adds a separate entry of the source. One block for each molecule: values may come before it.

How the values were obtained:
[1] = type: physicochemical
Excerpt: Since drugs are said to pass the skin through either polar pathways or norpolar pathways, it is instructive to examine the solubility parameters and lipophilic indices of such enhancers, the latter being calculated from the defermination of their k' values in the mobile phase of varying methanol concentrations of the HPLC method used.

HSV 1 [2] = settings: cited from earlier work
[3] = test system: Varicella Zoster virus(VZV); settings: cited from earlier work
HSV = settings: in vivo studies; cited from earlier work
Epstein Barr virus(EBV) = settings: cited from earlier work
HSV 1 [4] = settings: cited from earlier work; remark: listed apart in the source
Cytomegalovirus(CMV) = settings: cited from earlier work
HSV 2 = settings: cited from earlier work
[5] = used locally; cited from earlier work
[6] = in vivo; cited from earlier work
[7] = in vitro; cited from earlier work

polarity [1]: opposite polarities
SMILES: CC1(C)CC[C@]2(C(=O)O)CC[C@]3(C)C(=CC[C@@H]4[C@@]5(C)CC[C@H](O)C(C)(C)[C@@H]5CC[C@]43C)[C@@H]2C1 [oleanolic acid]

SMILES: Nc1nc2c(ncn2COCCO)c(=O)[nH]1 [ACV, 9-[(2-Hydroxyethoxy)methyl]-guanine]
activity against HSV 1 (HSV 1 [2]): active; also recorded: especially HSV 1
activity against VZV [3]: active
in vivo rating to treat HSV, comparison (HSV): better than FIAC(D17) and DHPG(D2); also recorded: better than bromovinyldeoxy uridine(D16) being effective against both HSV 1 and HSV 2
activity against EBV (Epstein Barr virus(EBV)): active against EBV, but only during the productive cycle
drug concentration in the skin, local vs oral (HSV 1 [4]; local application vs given orally): 2-3 times lower
effect in the treatment of HSV 1, oral vs local (HSV 1 [4]; oral administration vs local application): better with oral administration than with local application
activity against CMV (Cytomegalovirus(CMV)): active
effectiveness against CMV, comparison (Cytomegalovirus(CMV); compared with DHPG, Idoxuridine, Trifluridine, or Ara-A, in some case): less effective against CMV as compared with DHPG, Idoxuridine, Trifluridine, orAra-A
activity against HSV 2 (HSV 2): active

SMILES: O=c1[nH]c(=O)n([C@H]2C[C@H](O)[C@@H](CO)O2)cc1I [IDU]
toxicity [5]: relatively low toxicities

SMILES: CC1(C)[C@@H](O[C@H]2O[C@H](C(=O)O)[C@@H](O)[C@H](O)[C@H]2O[C@@H]2O[C@H](C(=O)O)[C@@H](O)[C@H](O)[C@H]2O)CC[C@]2(C)[C@H]3C(=O)C=C4[C@@H]5C[C@@](C)(C(=O)O)CC[C@]5(C)CC[C@@]4(C)[C@]3(C)CC[C@@H]12 [glycyrrhizin]
effect against paw swelling [6]: effective against paw swelling
anti-inflammatory property [7]: anti-inflammatory property
